Data from PubChem BioAssay (NCI).
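Five concentrations, 48 hours, 96-well plates. Here, GI50 denotes the concentration required for 50% inhibition of growth. TGI denotes the concentration required for complete inhibition of growth.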

How the values were obtained:
Experiment in all cases: growth of human tumour cells (NCI), 48 h
[1] = tested on: TK-10 renal
[2] = tested on: OVCAR-5 ovarian
[3] = tested on: KM20L2 colon
[4] = tested on: NCI-H23 lung
[5] = tested on: MOLT-4 leukemia
[6] = tested on: LOX IMVI melanoma
[7] = tested on: M14 melanoma
[8] = tested on: COLO 205 colon
[9] = tested on: A549 NSCLC
[10] = tested on: NCI-H522 lung
[11] = tested on: SNB-78 CNS
[12] = tested on: UO-31 renal
[13] = tested on: CAKI-1 renal
[14] = tested on: SR leukemia
[15] = tested on: SK-MEL-28 melanoma
[16] = tested on: OVCAR-4 ovarian
[17] = tested on: SW-620 colon
[18] = tested on: HOP-18 NSCLC
[19] = tested on: SF-295 CNS
[20] = tested on: OVCAR-3 ovarian
[21] = tested on: ACHN renal
[22] = tested on: KM12 colon
[23] = tested on: SK-MEL-5 melanoma
[24] = tested on: UACC-62 melanoma
[25] = tested on: SNB-19 CNS
[26] = tested on: UACC-257 melanoma
[27] = tested on: OVCAR-8 ovarian
[28] = tested on: HT29 colon
[29] = tested on: M19-MEL melanoma
[30] = tested on: RPMI-8226 leukemia
[31] = tested on: NCI-H460 lung
[32] = tested on: LXFL 529 NSCLC
[33] = tested on: HCT-15 colon
[34] = tested on: DMS 114 small cell lung
[35] = tested on: NCI-H226 lung
[36] = tested on: EKVX NSCLC
[37] = tested on: IGROV1 ovarian
[38] = tested on: HCC-2998 colon
[39] = tested on: DLD-1 colon
[40] = tested on: U251 CNS
[41] = tested on: HL-60(TB) leukemia
[42] = tested on: SK-OV-3 ovarian
[43] = tested on: K-562 leukemia
[44] = tested on: MALME-3M melanoma
[45] = tested on: HCT-116 colon
[46] = tested on: HOP-62 NSCLC
[47] = tested on: SNB-75 CNS
[48] = tested on: 786-0 renal
[49] = tested on: SK-MEL-2 melanoma
[50] = tested on: SF-268 CNS
[51] = tested on: SF-539 CNS
[52] = tested on: DMS 273 small cell lung
[53] = tested on: CCRF-CEM leukemia
[54] = tested on: SN12C renal
[55] = tested on: RXF 393 renal
[56] = tested on: XF 498 CNS

CC1(C)OC(=O)C=C([O-])O1.CC1(C)OC(=O)C=C([O-])O1.CC[O-].CC[O-].[Ti+4]
GI50 [1]: > 100 µM | TGI [1]: > 100 µM | GI50 [2]: > 100 µM | TGI [2]: > 100 µM | GI50 [3]: > 100 µM | TGI [3]: > 100 µM | GI50 [4]: > 100 µM | TGI [4]: > 100 µM | GI50 [5]: > 100 µM | TGI [5]: > 100 µM | GI50 [6]: > 100 µM | TGI [6]: > 100 µM | GI50 [7]: > 100 µM | TGI [7]: > 100 µM | GI50 [8]: > 100 µM | TGI [8]: > 100 µM | GI50 [9]: > 100 µM | TGI [9]: > 100 µM | GI50 [10]: > 100 µM | TGI [10]: > 100 µM | GI50 [11]: > 100 µM | TGI [11]: > 100 µM | GI50 [12]: > 100 µM | TGI [12]: > 100 µM | GI50 [13]: > 100 µM | TGI [13]: > 100 µM | GI50 [14]: > 100 µM | TGI [14]: > 100 µM | GI50 [15]: > 100 µM | TGI [15]: > 100 µM | GI50 [16]: > 100 µM | TGI [16]: > 100 µM | GI50 [17]: > 100 µM | TGI [17]: > 100 µM | GI50 [18]: > 100 µM | TGI [18]: > 100 µM | GI50 [19]: > 100 µM | TGI [19]: > 100 µM | GI50 [20]: > 100 µM | TGI [20]: > 100 µM | GI50 [21]: > 100 µM | TGI [21]: > 100 µM | GI50 [22]: > 100 µM | TGI [22]: > 100 µM | GI50 [23]: > 100 µM | TGI [23]: > 100 µM | GI50 [24]: > 100 µM | TGI [24]: > 100 µM | GI50 [25]: > 100 µM | TGI [25]: > 100 µM | GI50 [26]: > 100 µM | TGI [26]: > 100 µM | GI50 [27]: > 100 µM | TGI [27]: > 100 µM | GI50 [28]: > 100 µM | TGI [28]: > 100 µM | GI50 [29]: > 100 µM | TGI [29]: > 100 µM | GI50 [30]: > 100 µM | TGI [30]: > 100 µM | GI50 [31]: > 100 µM | TGI [31]: > 100 µM | GI50 [32]: > 100 µM | TGI [32]: > 100 µM | GI50 [33]: > 100 µM | TGI [33]: > 100 µM | GI50 [34]: > 100 µM | TGI [34]: > 100 µM | GI50 [35]: > 100 µM | TGI [35]: > 100 µM | GI50 [36]: > 100 µM | TGI [36]: > 100 µM | GI50 [37]: > 100 µM | TGI [37]: > 100 µM | GI50 [38]: > 100 µM | TGI [38]: > 100 µM | GI50 [39]: > 100 µM | TGI [39]: > 100 µM | GI50 [40]: > 100 µM | TGI [40]: > 100 µM | GI50 [41]: > 100 µM | TGI [41]: > 100 µM | GI50 [42]: > 100 µM | TGI [42]: > 100 µM | GI50 [43]: > 100 µM | TGI [43]: > 100 µM | GI50 [44]: > 100 µM | TGI [44]: > 100 µM | GI50 [45]: > 100 µM | TGI [45]: > 100 µM | GI50 [46]: > 100 µM | TGI [46]: > 100 µM | GI50 [47]: > 100 µM | TGI [47]: > 100 µM | GI50 [48]: > 100 µM | TGI [48]: > 100 µM | GI50 [49]: > 100 µM | TGI [49]: > 100 µM | GI50 [50]: > 100 µM | TGI [50]: > 100 µM | GI50 [51]: > 100 µM | TGI [51]: > 100 µM

Nc1ccc([C@H]2C(=O)N[C@H]3CCC[C@H]32)cc1
TGI [1]: > 100 µM | TGI [52]: > 100 µM | TGI [4]: > 100 µM | TGI [5]: > 100 µM | TGI [6]: > 100 µM | TGI [7]: > 100 µM | TGI [8]: > 100 µM | TGI [9]: > 100 µM | TGI [10]: > 100 µM | TGI [12]: > 100 µM | TGI [13]: > 100 µM | TGI [53]: > 100 µM | TGI [15]: > 100 µM | TGI [17]: > 100 µM | TGI [19]: > 100 µM | TGI [20]: > 100 µM | TGI [22]: > 100 µM | TGI [23]: > 100 µM | TGI [24]: > 100 µM | TGI [25]: > 100 µM | TGI [26]: > 100 µM | TGI [27]: > 100 µM | TGI [28]: > 100 µM | TGI [54]: > 100 µM | TGI [29]: > 100 µM | TGI [30]: > 100 µM | TGI [33]: > 100 µM | TGI [34]: > 100 µM | TGI [35]: > 100 µM | TGI [36]: > 100 µM | TGI [37]: > 100 µM | TGI [55]: > 100 µM | TGI [41]: > 100 µM | TGI [42]: > 100 µM | TGI [43]: > 100 µM | TGI [47]: > 100 µM | TGI [56]: > 100 µM | TGI [50]: > 100 µM | TGI [51]: > 100 µM
